Test results as given in patent US20220031845A1, “DILUENTS FOR COMPOSITIONS OF CANNABINOIDS AND USES THEREOF” (KANABO RESEARCH LTD., priority 2019, published 2022).

Experiments:
[1] = Stability of oversaturated CBD blend to crystallization; assay type: physicochemical; design: key: +: crystallization; −: no crystallization; conditions: one week at 10 or 22° C.
Method: Vials were prepared with 5 ml of oversaturated blend of CBD with different diluent. The blend was composed of CBD distilled oil (containing 90% CBD and less than 1% bisabolol) or CBD isolate (more than 99% CBD), and natural bisabolol and phytol. The stability of the solution to crystallization in the vial after a week of storage at either 10 or 22° C. is presented in Table 7.

[2] = Crystallization of CBD blends with different diluents after addition of crystal seed; assay type: physicochemical; design: key to crystallization of CBD: +: crystallization; −: no crystallization; conditions: for crystallization of CBD: 1% flavor, crystal seed, 22° C., one week; for concentration of CBD stabilized in the composition: at the diluent concentration that prevents crystallization
Method: 5 g of the following different blends were prepared. The blends contained a CBD distillate containing 92% of CBD, a diluent at different concentrations and 1% natural flavor (Girl School cookies from Floraplex—USA). The diluent was phytol, natural bisabolol or a combination of phytol and natural bisabolol. 2 mg of crystal seed were added to the vial to initiate crystallization. The vials were stored at 22° C. The vials were checked after a week to see if there is crystallization.

[3] = 28% diluent in blend, CBD distillate 92% CBD
[4] = 32% diluent in blend, CBD distillate 92% CBD
[5] = 36% diluent in blend, CBD distillate 92% CBD

Row | Structure (SMILES) | Crystallization ([1]; CBD 90% distilled oil, 5% diluent in blend) | Crystallization ([1]; CBD 90% distilled oil, 10% diluent in blend) | Crystallization ([1]; CBD 90% distilled oil, 20% diluent in blend) | Crystallization ([1]; CBD isolate, 10% diluent in blend) | Crystallization ([1]; CBD isolate, 20% diluent in blend) | crystallization of CBD [2, 3] | crystallization of CBD [2, 4] | crystallization of CBD [2, 5] | concentration of CBD stabilized in the composition [2] | Crystallization ([1]; CBD 90% distilled oil, 15% diluent in blend) | crystallization of CBD ([2]; 40% diluent in blend, CBD distillate 92% CBD) | crystallization of CBD ([2]; 44% diluent in blend, CBD distillate 92% CBD) | concentration of diluent required to prevent crystallization ([2]; upon addition of crystallization seeds, CBD distillate 92% CBD)
1 | CC(C)=CCC[C@](C)(O)C1CC=C(C)CC1 (stereo partly drawn) [Bisabolol, α-(−)-bisabolol] | − | − | − | + | − | + | − | − | up to 65% |  |  |  | 
2 | C/C(=C\CO)CCC[C@H](C)CCC[C@H](C)CCCC(C)C [Phytol, phytol] |  |  |  |  |  | + | + | + | about 50% | + | + | − | about 44%
